The results in this text go back to ChEMBL document CHEMBL1134953, “Two selective novel triterpene glycosides from sea cucumber, Telenata Ananas: inhibitors of chemokine receptor-5” (Bioorg Med Chem Lett, 2002).

This assay concerns the target C-C chemokine receptor type 5 (Homo sapiens, UniProt P51681). The experiment in a line: Inhibitory activity against human CCR5 chemokine receptor (CCR5) expressed in CHO cells. Type of assay: cell-based.

Sequence of C-C chemokine receptor type 5 (P51681 whole entry): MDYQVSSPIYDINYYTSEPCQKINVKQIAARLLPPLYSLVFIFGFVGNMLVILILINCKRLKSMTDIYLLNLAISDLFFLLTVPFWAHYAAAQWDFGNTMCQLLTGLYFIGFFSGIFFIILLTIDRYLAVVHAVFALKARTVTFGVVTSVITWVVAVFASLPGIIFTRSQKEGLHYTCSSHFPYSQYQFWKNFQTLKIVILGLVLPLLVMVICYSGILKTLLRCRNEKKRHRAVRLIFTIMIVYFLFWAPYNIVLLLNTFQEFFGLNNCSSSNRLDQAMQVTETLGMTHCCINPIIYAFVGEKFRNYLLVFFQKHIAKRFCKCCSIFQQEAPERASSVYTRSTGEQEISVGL

As for `C[C@H]1O[C@@H](O[C@H]2[C@H](O[C@H]3CC[C@]4(C)C5=C[C@H](O)C67C(=O)O[C@@](C)(C8CCC(C)(C)O8)[C@@]6(O)CC[C@@]7(C)C5CCC4C3(C)C)OC[C@@H](O[C@@H]3O[C@H](CO)[C@@H](O)[C@H](O)[C@H]3O)[C@@H]2O)[C@H](O)[C@@H](O)[C@@H]1O` (some centres not stated), the Ki was found to be 30 µM. In other words, the double-digit micromolar range.

Consider `COC1[C@@H](O)C(OC2[C@@H](O)[C@H](O[C@H]3[C@H](O)[C@@H](O)[C@H](O[C@H]4[C@H](O[C@H]5CC[C@]6(C)C7=C[C@H](O)C89C(=O)O[C@@](C)(CCCC(C)C)C8CC[C@@]9(C)C7CCC6C5(C)C)OC[C@@H](O[C@@H]5O[C@H](CO)[C@@H](O)[C@H](OC6O[C@H](CO)[C@@H](O)[C@H](OC)[C@H]6O)[C@H]5O)[C@@H]4O)O[C@@H]3C)O[C@H](CO)[C@H]2O)O[C@H](CO)[C@H]1O` (some centres not stated), for which the affinity corresponds to a Ki of 5.1 µM.

Usually Ki stands for the equilibrium dissociation constant of an inhibitor or competing ligand from its target. Read a high Ki as lower affinity.
